The record followed here is publication PMC4621027, “Hydroxyethylamine Based Phthalimides as New Class of Plasmepsin Hits: Design, Synthesis and Antimalarial Evaluation” (PLoS ONE, 2015).

The test system of data set [1] is CQ resistant strain (7GB) of P. falciparum. Nature of the data set: Antiplasmodial activity against CQ resistant strain. In kind it is cell-based. To be noted: Plasmodium falciparum; values in brackets; 48 h incubation; read-out: IC50 values ± SE, CQ resistant strain (7GB) (converted). The method, then:
(§1) For compound screening, SYBR green I-based fluorescence assay was setup as described in literature. Sorbitol synchronized parasites were incubated under normal culture conditions at 2% hematocrit and 1% parasitemia in the absence or presence of increasing concentrations of the compounds. Chloroquine (CQ) was used as positive control, while 0.4% DMSO was used as the negative control.
(§2) We have studied the antimalarial effect of all the listed molecules in […] culture conditions in order to identify a putative lead structure for pharmacological applications.

The subject of a further data set is P. falciparum 3D7. Nature of the data set: SYBR green I-based fluorescence parasite growth assay, CQ sensitive strain. To be noted: Plasmodium falciparum; CQ sensitive strain 3D7; 48 h incubation; read-out: IC50 values ± SE, growth of P. falciparum (3D7). In kind it is cell-based, Plasmodium falciparum. The method, then: as §1, §2
A further data set relates to MCF-7 cell line. Nature of the data set: MTT-colorimetric cytotoxicity assay. In kind it is cell-based. To be noted: 100, 25 and 6.25 μg mL^-1. The method, then: Phthalimides were serially diluted in DMSO in a final concentration of 100, 25 and 6.25 μg mL^-1 and evaluated for their % cytotoxicity by using MTT-colorimetric assay on MCF-7 cell line. Cell lines were maintained in RPMI-1640 (Hi-Media, Mumbai) medium supplemented with heat inactivated FCS (10% v/v) and 100 U/mL of streptomycin and were cultured in a humidified 5% CO2 atmosphere at 37°C. 100 μL (~2×10^5) of cells were seeded into wells (per well) on a 96-well plate (Nunc, Maxi Sorp) and incubated for 16 h for adherence. After 16 h, media was aspirated from the wells and the cells were washed with RPMI-1640 without FCS. 75 μL of each compound and control was added to separate wells containing cell lines and incubated at 37°C in humidified 5% CO2 atmosphere for 4 h. After 4 h, media containing the compounds was replaced with 200 μL of normal RPMI-1640 and cells were further incubated for 48 h under same conditions. After 48 h media was replaced by 200 μL of MTT (3-(4, 5-dimethylthiazol-2-yl)-2, 5-diphenyltetrazolium bromide, 0.5 mg/mL of RPMI-1640) and further incubated for 2 h. The formazan crystals were formed and suspended in 100 μL iso-propanol containing 0.06 M HCl and 0.5% SDS. Aliquots were drawn from each well and colour intensity was measured spectrophotometrically in an ELISA plate reader (Biotek, ELx800) at 540 nm. Untreated cells were taken as control with 100% viability and cells without addition of MTT were used as blank. The relative cell viability (%) compared to control cells was calculated by [abs] sample/ [abs] control × 100.

Data set [2] deals with P. falciparum developmental stages (asexual). The data set is described as follows: Effect on P. falciparum developmental stages, Giemsa-stained smears. In kind it is cell-based, Plasmodium falciparum. To be noted: 5 μM. The method, then: Further, in order to assess the effect of potent molecule 5e on the parasite developmental stages (asexual), we treated tightly synchronized ring-stage parasite cultures with 5e at 5 μM concentration and counted the parasites at different developmental stages (rings, trophozoites and schizonts) in Giemsa-stained smears at three time points (36, 44, and 52 h after treatment). The control (untreated) parasite progressed through the first cell cycle (0–48 h), increased in size and density, developed into trophozoites and schizonts and subsequently formed viable merozoites. These merozoites were able to invade fresh RBCs and form new ring-stage parasites. (Fig 4).

For the next data set, the target named is T1, plasmepsin 2 (Plasmodium falciparum, UniProt P46925).
T1 construct: preincubated at the assay pH for 3 minutes to allow conversion from the proenzyme to the mature enzyme form; made in house
T1 sequence (P46925 125-453): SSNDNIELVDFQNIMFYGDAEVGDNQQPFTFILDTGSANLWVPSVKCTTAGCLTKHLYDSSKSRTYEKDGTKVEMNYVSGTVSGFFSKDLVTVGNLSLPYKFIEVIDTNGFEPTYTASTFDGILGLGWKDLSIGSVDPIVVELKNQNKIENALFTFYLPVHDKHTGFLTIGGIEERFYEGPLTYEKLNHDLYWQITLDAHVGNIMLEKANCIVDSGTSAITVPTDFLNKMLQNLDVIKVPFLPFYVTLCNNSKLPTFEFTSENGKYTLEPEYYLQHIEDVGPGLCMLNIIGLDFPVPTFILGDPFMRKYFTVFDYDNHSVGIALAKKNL
Nature of the data set: Inhibition of plasmepsin 2, chromogenic substrate cleavage assay. The class given is biochemical. The note with it: tested at 10 to 50 μM. The method, then:
(§3) Synthetic compounds were dissolved in DMSO to make stock solutions at concentrations around 100 μM. Dilutions from these stocks were made to obtain solutions to use for studying inhibition of the plasmepsins 2 and 4 from P. falciparum. Assays of enzymatic activity were typically done using 50 micromolar substrate and 50 nanomolar enzyme at pH 4.5. The protein samples were preincubated at the assay pH for 3 minutes to allow conversion from the proenzyme to the mature enzyme form, then immediately mixed with inhibitor solutions and incubated for a further 5 minutes to permit the enzyme-inhibitor complex to form. Following this, the samples were mixed with samples of the substrate to yield a 50 μM substrate concentration in the final assay solution and immediately placed in a recording spectrophotometer to follow the reaction. The cleavage of the chromogenic substrate yields a shift in absorbance that can be quantified by the decrease in absorbance at 300 nm. Compounds were mixed with the enzymes at concentrations ranging from 10 to 50 μM range and the effect on enzyme activity studied in duplicate assays.
(§4) A second inhibitor concentration was chosen that would yield approximately 30–35% inhibition and a third inhibitor concentration was chosen to yield approximately 65–70% inhibition. The three resulting curves of initial velocity versus substrate concentration were fit simultaneously to the competitive inhibition scheme; this yields values of Vmax, Km, and Ki.
(§5) Plasmepsins, a family of aspartic proteases of malaria parasite, are known to participate in a wide variety of cellular processes essential for parasite survival. […] Similarly, plasmepsin 4 from P. falciparum can be prepared and activated. Catalytic activity of the plasmepsins can be studied by following the change in absorbance at 300 nm as cleavage occur between a Phe and a nitroPhe in the synthetic substrate, Lys-Pro-Ile-Glu-Phe-NO2Phe-Arg-Leu. The compounds listed in Tables 1, 2 and 3 were assayed for inhibition by preincubating with differnt concentrations of the compound with equal aliquots of either plasmepsin 2 or 4 followed by mixing with the assay substrate.

The next data set concerns human erythrocytes. Nature of the data set: In vitro hemolytic activity. In kind it is cell-based. The note with it: 3.125 to 100 μg/mL, 37°C, 1 h. The method, then: In vitro hemolytic activity of all synthesized compounds was performed as per reported protocol with slight modifications. In brief, human erythrocytes were collected from Rotary Blood Bank (New Delhi, India) and suspended in phosphate buffer saline (PBS). The suspension (2% hemotocrit) was incubated with different concentrations (3.125 to 100 μg/mL) of the entire compound series at 37°C for 1 h. After 1 h, erythrocytes were pelleted at 3000 g for 10 min (Remi, R-8C/BL) at 4°C. The supernatant was collected and OD450 was determined spectrophotometrically (Biotek, ELx800 UV spectrophotometer) using PBS as a negative control and Triton X-100 for completely lysing the cells. The percent hemolysis was calculated using the following formula: Percent hemolysis = […]. The percent hemolysis was plotted against concentration of compounds for determining the dose cytotoxic to erythrocytes.

A further data set concerns the target T2, plasmepsin 4 (Plasmodium falciparum, UniProt Q8IM16).
T2 construct: preincubated at the assay pH for 3 minutes to allow conversion from the proenzyme to the mature enzyme form; made in house
Nature of the data set: Inhibition of plasmepsin 4, chromogenic substrate cleavage assay. The class given is biochemical. The note with it: tested at 10 to 50 μM. The method, then:
as §3, §4, §5

Entries after “also recorded” stand apart in the source; their conditions may differ.

T2 sequence (Q8IM16 122-449): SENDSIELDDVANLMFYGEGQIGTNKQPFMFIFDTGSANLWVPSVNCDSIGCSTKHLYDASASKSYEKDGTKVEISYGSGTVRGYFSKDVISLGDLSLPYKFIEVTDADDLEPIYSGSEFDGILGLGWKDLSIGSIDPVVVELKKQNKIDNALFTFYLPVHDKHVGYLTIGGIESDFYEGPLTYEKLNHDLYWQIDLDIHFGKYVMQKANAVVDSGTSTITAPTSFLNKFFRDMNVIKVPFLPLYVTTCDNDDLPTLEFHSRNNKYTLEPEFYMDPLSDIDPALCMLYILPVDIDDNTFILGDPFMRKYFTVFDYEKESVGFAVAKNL

With `CC(C)[C@@H](C(=O)N[C@H](Cc1ccccc1)[C@@H](O)CN1CCN(Cc2ccc(Br)cc2)CC1)N1C(=O)c2ccccc2C1=O` [Compound 6o], the IC50 in data set [1] is 3010 nM; in the data set on P. falciparum 3D7, 1250 ± 80 nM. The “cytotoxic effect on MCF7 cell line (in words)” value (“cytotoxic effect” for short) with MCF-7 cell line was “low cytotoxic effect”.

Consider `CC(C)(C)OC(=O)N[C@H](Cc1ccccc1)[C@@H](O)CN1CCC(N2CCCCC2)CC1` [Compound 5e], for which the “total parasitemia compared with the control set” value in data set [2] (at 52 h) was “lower total parasitemia”. For the same molecule, the “effect on parasite developmental stages” value in data set [2] (synchronized ring-stage cultures, 36, 44 and 52 h after treatment) is “developmental arrest in the transition from early to late schizont”. Further, the values for the IC50 (in data set [1]; in the data set with P. falciparum 3D7) were 2990 nM and 1160 ± 40 nM, respectively. Further, the “inhibition of plasmepsin 2 (in words)” value against plasmepsin 2 is reported as “did not inhibit”. Also, in the data set on MCF-7 cell line, the “cytotoxic effect” value is “low cytotoxic effect; also recorded: less toxic”. In addition, the “hemolysis of human erythrocytes (in words)” value in the data set on human erythrocytes is recorded as “lower hemolysis”. Moreover, at plasmepsin 4, the “inhibition of plasmepsin 4 (in words)” value is “did not inhibit”.

`O=C(N[C@H](Cc1ccccc1)[C@@H](O)CN1CCN(Cc2ccc(F)cc2)CC1)[C@H](Cc1ccccc1)N1C(=O)c2ccccc2C1=O` [Compound 6j] yielded a melting point of 121 to 123 °C. The IC50 in data set [1] is 3600 nM. Besides, the IC50 in the data set on P. falciparum 3D7 came to 1330 ± 40 nM. Further, in the data set on MCF-7 cell line, the “cytotoxic effect” value is listed as “low cytotoxic effect”. Also, the “hemolysis of human erythrocytes (in words)” value in the data set on human erythrocytes is given as “lower hemolysis”.
